Results taken from ChEMBL document CHEMBL2384944, “Metabolically Stable tert-Butyl Replacement” (ACS Med Chem Lett, 2013).

Experiments:
[1] = Half life in human liver microsomes at 1 uM in presence of NADPH
[2] = Half life in rat liver microsomes at 1 uM in presence of NADPH
[3] = target: CYP3A4/5 (Homo sapiens, UniProt P08684+P20815); assay: Reversible inhibition of CYP3A4/5 in human liver microsomes using midazolam as substrate preincubated for 30 mins followed by NADPH and substrate addition measured after 10 mins; type: ADME, Microsome; conditions: probe midazolam
[4] = Lipophilicity, log P of the compound; type: physicochemical; conditions: octanol/water
[5] = Volume of distribution at steady state in Sprague-Dawley rat at <= 1 mg/kg, iv; type: ADME, organism-based; set-up: dose 1 mg/kg, route intravenous; conditions: in vivo, read-out: Vdss
[6] = Half life in Sprague-Dawley rat at <= 1 mg/kg, iv; type: ADME, organism-based; set-up: dose 1 mg/kg, route intravenous; conditions: in vivo
[7] = Clearance in Sprague-Dawley rat at <= 1 mg/kg, iv; type: ADME, organism-based; set-up: dose 1 mg/kg, route intravenous; conditions: in vivo

half-life at 1 µM ([1]; microsomes) [h] | half-life at 1 µM ([1]; liver microsomes) [h] | half-life at 1 µM ([2]; liver microsomes) [h] | IC50 at 10 min [3] [µM] | half-life at 1 µM ([2]; microsomes) [h] | SMILES | other results
1.05 |  |  |  |  | CC(C)(C)NC(=O)[C@H]1CC[C@H]2[C@@H]3CC[C@H]4NC(=O)C=C[C@]4(C)[C@H]3CC[C@]12C [FINASTERIDE] | 
 | 1.47 | 1.63 |  |  | N#Cc1ccc(NC(=O)c2ccc(C3(C(F)(F)F)CC3)cc2)cn1 | 
 | 2.5 | > 6.67 | > 50 |  | N#Cc1ccc(-c2ccc(C3(C(F)(F)F)CC3)cc2)nc1 | logP [4]: 4; Vd [5]: 3.4 L/kg; half-life [6]: 9.1 h; clearance [7]: 0.276 L/h/kg
0.45 |  |  | > 50 | 0.4 | CC(C)(C)c1ccc(-c2ccc(F)cn2)cc1 | 
0.633 |  |  | > 50 | 0.617 | CC1(c2ccc(-c3ccc(C#N)cn3)cc2)COC1 | Vd [5]: 1.3 L/kg; half-life [6]: 0.4 h; clearance [7]: 1.68 L/h/kg
 | 0.683 | 0.417 | > 50 |  | CC(C)(C)c1ccc(C(=O)Nc2ccc(C(F)(F)F)nc2)cc1 | Vd [5]: 5.4 L/kg; half-life [6]: 0.2 h; clearance [7]: 21.1 L/h/kg
> 6.75 |  |  |  | 0.783 | N#Cc1ccc(NC(=O)c2ccc(C3(C(F)(F)F)CC3)cc2)cc1 | 
 | 1.83 | 2.15 |  |  | N#Cc1ccc(-c2ccc(C3(C(F)(F)F)CC3)nc2)nc1 | 
2.03 |  |  |  | 1.17 | CC(C)(C#N)c1ccc(-c2ccc(C#N)cn2)cc1 | 
 | > 6.75 | 3.28 | > 50 |  | O=C(Nc1ccc(C(F)(F)F)nc1)c1ccc(C2(C(F)(F)F)CC2)cc1 | Vd [5]: 6.2 L/kg; half-life [6]: 3.4 h; clearance [7]: 1.5 L/h/kg
0.85 |  |  | > 50 | 0.5 | CC(C)(C)c1ccc(-c2ccc(C#N)cn2)cc1 | logP [4]: 4.2; Vd [5]: 2.5 L/kg; half-life [6]: 2.3 h; clearance [7]: 1.2 L/h/kg
3.37 |  |  |  | 2.08 | CC(C)(CO)c1ccc(-c2ccc(C#N)cn2)cc1 | 
 | 1.9 |  |  |  | C[C@]12C=CC(=O)N[C@@H]1CC[C@@H]1[C@@H]2CC[C@]2(C)[C@@H](C(=O)NC3(C(F)(F)F)CC3)CC[C@@H]12 | 
 | 0.483 | 0.2 |  |  | CC(C)(C)c1ccc(C(=O)Nc2ccc(C(F)(F)F)cc2)cc1 | 
 | 1.42 | 0.2 |  |  | CC(C)(C)c1ccc(C(=O)Nc2ccc(C#N)cc2)cc1 | 
0.15 |  |  | > 50 | 0.117 | CC(C)c1ccc(-c2ccc(C#N)cn2)cc1 | 
4.57 |  |  |  | 2.25 | CC(C)(C(=O)O)c1ccc(-c2ccc(C#N)cn2)cc1 | 
> 6.75 |  |  |  | 0.667 | O=C(Nc1ccc(C(F)(F)F)cc1)c1ccc(C2(C(F)(F)F)CC2)cc1 | 
 | 1.15 | 1.25 |  |  | N#Cc1cc(-c2ccc(C3(C(F)(F)F)CC3)cc2)ccn1 | 
 | 0.417 | 0.133 |  |  | CC(C)(C)c1ccc(-c2ccnc(C#N)c2)cc1 | 
 | 1.07 | > 6.75 | > 50 |  | Fc1ccc(-c2ccc(C3(C(F)(F)F)CC3)cc2)nc1 | 
 | 0.85 | 0.4 |  |  | CC(C)(C)c1ccc(C(=O)Nc2ccc(C#N)nc2)cc1 | 
1.1 |  |  |  | 0.417 | CC(c1ccc(-c2ccc(C#N)cn2)cc1)C(F)(F)F (centres undefined) | 
